For 29 compounds, inhibition and IC50 results are on record in patent publication US20260042734A1, “HETEROCYCLIC RING-SUBSTITUTED AROMATIC COMPOUND, PREPARATION METHOD THEREFOR, AND USE THEREOF” (SHANGHAI HENLIUS BIOTECH, INC., priority 2023, published 2026).

For this assay, the target named is human Kv1.3 (hKv1.3) channels (Homo sapiens (Human), UniProt P22001). Description: Electrophysiological (whole-cell patch clamp) determination of inhibitory activity on Kv1.3 channels. Type of assay: cell-based. Particulars: HEK293T cells expressing hKv1.3; for inhibition at 0.01 µM: HEK-293T, compound concentration 10 nM, peak current inhibition, read-out: 10 nM inhibition rate (Kv1.3); for IC50: Hill fit of peak current inhibition. The procedure:
Test Example 1: Determination of Inhibitory Activity of Compounds on Kv1.3 (hKv1.3) Channels
Electrophysiological Testing
Potassium currents were measured using HEK293T cells expressing human Kv1.3 (hKv1.3) channels.
Prior to the start of electrophysiological experiments, Kv1.3 cell lines should be maintained within 70% of the maximum density in the logarithmic growth phase. All reagents should be pre-warmed to 37° C. before use. • 1) Aspirate the spent medium from the 6 cm culture dish. • 2) Add 1 mL of PBS, gently rock the dish to rinse the bottom, and then remove the PBS. • 3) Add 1 mL of trypsin, and gently rock the dish to ensure the trypsin covers all the cells. • 4) Incubate at 37° C. for 2-3 minutes, and then gently pipette the cells to suspend the adherent cells. • 5) Transfer the cell suspension to a new centrifuge tube and centrifuge at 1000 rpm for 5 minutes. Adjust the cell concentration to 2×10^3 cells/mL, and then seed 300 μL of the cell suspension into each well of a 24-well plate containing cell climbing slides. Perform patch clamp experiments after the cells adhered properly.
The intracellular and extracellular solutions used were designed to mimic the cell physiological ionic composition.
Kv1.3 extracellular solution: 137 mM NaCl, 1 mM MgCl2·6H2O, 4 mM KCl, 1.8 mM CaCl2·2H2O, 10 mM D-Glucose, 10 mM HEPES, pH adjusted to 7.4 with NaOH.
Kv1.3 intracellular solution: 140 mM KCl, 10 mM EGTA, 5 mM MgCl2·6H2O, 10 mM HEPES, […], pH adjusted to 7.2 with KOH.
Test Compound Dissolution
• 1) The test compound was dissolved in DMSO to prepare a 30 mM stock solution. • 2) The stock solution of the test compound was serially diluted with DMSO to obtain secondary stock solutions at concentrations of 300 μM, 100 μM, 30 μM, 10 μM, and 3 μM. • 3) 10 μL of each secondary stock solution was diluted into 10 mL of extracellular solution to achieve final concentrations of 300 nM, 100 nM, 30 nM, 10 nM, and 3 nM for electrophysiological testing.
Kv1.3 potassium current data were collected and stored on a computer using Patchmaster software via an EPC-10 amplifier. • 1) The cell climbing slide was removed from the cell culture dish using forceps, immersed with extracellular solution, and placed into the bath chamber on the stage of an inverted microscope. • 2) Glass micropipettes were pulled using a P-1000 micropipette puller, filled one-third of their volume with intracellular solution, and then mounted onto an electrode holder. • 3) Using a motorized micromanipulator (Scientifica-Double 1U), the recording electrode was brought into contact with the cell surface. […] The positive pressure was removed, and a negative pressure of 0.5 cm H2O was applied. It was observed that the sealing resistance increased rapidly until it reached the gigaseal. When the sealing resistance between the recording electrode and the cell membrane was >1 GΩ, negative pressure was applied to rupture the membrane to form the whole-cell recording mode. After the ruptured membrane stabilized, the membrane capacitance (Cs) and series resistance (Rs) were compensated. • 4) Stimulation procedure: the cell was voltage-clamped at −80 mV, depolarized to 40 mV for a duration of 200 ms, and then repolarized to −80 mV. Currents were recorded every 10 s. • 5) Kv1.3 potassium channel currents were recorded at room temperature prior to drug application. After the control current value reached a steady state (indicated by overlapping of the four most consecutive current traces), cumulative drug application was performed. The negative control (0.1% DMSO) was applied first, followed by […] of the drugs.
Raw Kv1.3 current peak data were extracted from PatchMaster software. The current inhibition rate was calculated as follows: Peak current inhibition rate=((1−(Peak current compound)/(Peak current vehicle))). […]
Background: In patch-clamp work, channel activity is measured electrically.

Sequence of human Kv1.3 (hKv1.3) channels (P22001 whole entry): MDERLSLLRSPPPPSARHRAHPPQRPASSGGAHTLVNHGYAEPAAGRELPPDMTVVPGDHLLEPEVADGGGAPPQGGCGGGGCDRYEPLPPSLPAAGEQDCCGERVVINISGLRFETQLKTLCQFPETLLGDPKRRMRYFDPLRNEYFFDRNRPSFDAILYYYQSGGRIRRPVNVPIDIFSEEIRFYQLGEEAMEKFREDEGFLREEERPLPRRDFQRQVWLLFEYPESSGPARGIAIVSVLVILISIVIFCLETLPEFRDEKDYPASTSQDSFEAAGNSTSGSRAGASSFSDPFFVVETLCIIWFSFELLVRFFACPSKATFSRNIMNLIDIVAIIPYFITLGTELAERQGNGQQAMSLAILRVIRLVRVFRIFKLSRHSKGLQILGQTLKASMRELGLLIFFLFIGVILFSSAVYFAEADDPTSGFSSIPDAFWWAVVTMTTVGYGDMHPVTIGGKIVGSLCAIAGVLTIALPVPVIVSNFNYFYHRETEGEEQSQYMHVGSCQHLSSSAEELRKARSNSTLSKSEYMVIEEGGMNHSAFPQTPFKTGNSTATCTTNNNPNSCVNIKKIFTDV

The term inhibition denotes the drop in the measured response relative to a control, in per cent. `Oc1ccc(Cl)c(Cl)c1C1CC(=S)N(c2cnn(C3COC3)c2)C1` (racemic) [Compound 164, rac-4-(2,3-dichloro-6-hydroxyphenyl)-1-(1-(oxetan-3-yl)-1H-pyrazol-4-yl)pyrrolidine-2-thione]: the inhibition at 0.01 µM lay within 50 to 75%.

In the case of `COc1ccc(N2CC(c3c(O)ccc(Cl)c3Cl)CC2=S)cn1` (racemic) [Compound 165, rac-4-(2,3-dichloro-6-hydroxyphenyl)-1-(6-methoxypyridin-3-yl)pyrrolidine-2-thione], the inhibition at 0.01 µM lay within 0 to 5%.

Regarding `COc1cc(N2CC(c3c(O)ccc(Cl)c3Cl)CC2=S)ccn1` (racemic) [Compound 166, rac-4-(2,3-dichloro-6-hydroxyphenyl)-1-(2-methoxypyridin-4-yl)pyrrolidine-2-thione], the inhibition at 0.01 µM was 0 to 5%.

Turning to `Cc1cc(N2CC(c3c(O)ccc(Cl)c3Cl)CC2=S)ccn1` (racemic) [Compound 167, rac-4-(2,3-dichloro-6-hydroxyphenyl)-1-(2-methylpyridin-4-yl)pyrrolidine-2-thione], the inhibition at 0.01 µM lay in the range of 0 to 5%.

As to `O=C1N(CCCO)CC(c2c(O)ccc(Cl)c2Cl)C1(F)F` (racemic) [Compound 168, rac-4-(2,3-dichloro-6-hydroxyphenyl)-3,3-difluoro-1-(3-hydroxypropyl)pyrrolidin-2-one], the inhibition at 0.01 µM was < 0%.

For `O=C1N(CCCO)CC(c2c(O)ccc(Cl)c2Cl)C12CC2` (racemic) [Compound 169, rac-7-(2,3-dichloro-6-hydroxyphenyl)-5-(3-hydroxypropyl)-5-azaspiro[2.4]heptan-4-one], the inhibition at 0.01 µM was < 0%.

Usually IC50 stands for the concentration that gives 50% inhibition. Read a high IC50 as a need for much substance. For the compound `OCCCN1C[C@H](c2c(O)ccc(Cl)c2Cl)CC1=S` [Compound 1-1, (S)-4-(2,3-Dichloro-6-hydroxyphenyl)-1-(3-hydroxypropyl)pyrrolidine-2-thione], the IC50 was 5 to 10 nM.

For the compound `Cn1cncc1N1CC(c2c(O)ccc(Cl)c2Cl)CC1=S` (centres unmarked) [Compound 42, 4-(2,3-Dichloro-6-hydroxyphenyl)-1-(1-methyl-1H-imidazol-5-yl)pyrrolidine-2-thione], the inhibition at 0.01 µM was < 0%.

On to `Cc1ncc(N2CC(c3c(O)ccc(Cl)c3Cl)CC2=S)s1` (centres unmarked) [Compound 43, 4-(2,3-Dichloro-6-hydroxyphenyl)-1-(2-methylthiazol-5-yl)pyrrolidine-2-thione], for which the inhibition at 0.01 µM lay in the range of 0 to 5%.

Consider `CS(=O)(=O)NCCCN1CC(c2c(O)ccc(Cl)c2Cl)CC1=O` (centres unmarked) [Compound 76, N-(3-(4-(2,3-Dichloro-6-hydroxyphenyl)-2-oxopyrrolidin-1-yl)propyl)methanesulfonamide], for which the inhibition at 0.01 µM lay in the range of 0 to 5%.

In the case of `NS(=O)(=O)CCN1CC(c2c(O)ccc(Cl)c2Cl)CC1=O` (centres unmarked) [Compound 77, 2-(4-(2,3-Dichloro-6-hydroxyphenyl)-2-oxopyrrolidin-1-yl)ethane-1-sulfonamide], the inhibition at 0.01 µM lay within 0 to 5%.

For the compound `CS(=N)(=O)CCN1CC(c2c(O)ccc(Cl)c2Cl)CC1=O` (centres unmarked) [Compound 78, 4-(2,3-Dichloro-6-hydroxyphenyl)-1-(2-(S-methylsulfonylimino)ethyl) pyrrolidin-2-one], the inhibition at 0.01 µM was 0 to 5%.

Take `CS(=O)(=O)CCN1CC(c2c(O)ccc(Cl)c2Cl)CC1=O` (centres unmarked) [Compound 79, 4-(2,3-Dichloro-6-hydroxyphenyl)-1-(2-(methylsulfonyl)ethyl)pyrrolidin-2-one]: the inhibition at 0.01 µM is < 0%.

`C=Cn1cc(N2CC(c3c(O)ccc(Cl)c3Cl)CC2=O)cn1` (centres unmarked) [Compound 90, 4-(2,3-Dichloro-6-hydroxyphenyl)-1-(1-vinyl-1H-pyrazol-4-yl)pyrrolidin-2-one]: the inhibition at 0.01 µM was in the range of 50 to 75%.

With `O=C1CC(c2c(O)ccc(Cl)c2Cl)CN1C1CC2(CNC2)C1` (centres unmarked) [Compound 100, 4-(2,3-Dichloro-6-hydroxyphenyl)-1-(2-azaspiro[3.3]heptan-6-yl)pyrrolidin-2-one], the inhibition at 0.01 µM was ≥ 75%.

Take `NC1CC2(C1)CC(N1CC(c3c(O)ccc(Cl)c3Cl)CC1=O)C2` (centres unmarked) [Compound 101, 1-(6-Aminospiro[3.3]heptan-2-yl)-4-(2,3-dichloro-6-hydroxyphenyl) pyrrolidin-2-one]: the inhibition at 0.01 µM lay within 50 to 75%.

On to `CONCCCN1CC(c2c(O)ccc(Cl)c2Cl)CC1=O` (centres unmarked) [Compound 104, 4-(2,3-Dichloro-6-hydroxyphenyl)-1-(3-(methoxyamino)propyl)pyrrolidin-2-one], for which the inhibition at 0.01 µM was 0 to 5%.

For the compound `CON(C)CCCN1CC(c2c(O)ccc(Cl)c2Cl)CC1=O` (centres unmarked) [Compound 105, 4-(2,3-Dichloro-6-hydroxyphenyl)-1-(3-(methoxy(methyl)amino)propyl) pyrrolidin-2-one], the inhibition at 0.01 µM is < 0%.

Consider `NC(=S)CCN1CC(c2c(O)ccc(Cl)c2Cl)CC1=O` (centres unmarked) [Compound 113, 3-(4-(2,3-Dichloro-6-hydroxyphenyl)-2-oxopyrrolidin-1-yl)propanethioamide], for which the inhibition at 0.01 µM is < 0%.

`N=C(N)CCN1CC(c2c(O)ccc(Cl)c2Cl)CC1=O` (centres unmarked) [Compound 114, 3-(4-(2,3-Dichloro-6-hydroxyphenyl)-2-oxopyrrolidin-1-yl)propionimide]: the inhibition at 0.01 µM fell in the range of 0 to 5%.

Turning to `O=C(CCN1CC(c2c(O)ccc(Cl)c2Cl)CC1=O)NO` (centres unmarked) [Compound 115, 3-(4-(2,3-Dichloro-6-hydroxyphenyl)-2-oxopyrrolidin-1-yl)-N-hydroxypropionamide], the inhibition at 0.01 µM lay in the range of 25 to 50%.

Take `CN(O)C(=O)CCN1CC(c2c(O)ccc(Cl)c2Cl)CC1=O` (centres unmarked) [Compound 116, 3-(4-(2,3-Dichloro-6-hydroxyphenyl)-2-oxopyrrolidin-1-yl)-N-hydroxy-N-methylpropionamide]: the inhibition at 0.01 µM was < 0%.

Consider `CONC(=O)CCN1CC(c2c(O)ccc(Cl)c2Cl)CC1=O` (centres unmarked) [Compound 117, 3-(4-(2,3-Dichloro-6-hydroxyphenyl)-2-oxopyrrolidin-1-yl)-N-methoxypropionamide], for which the inhibition at 0.01 µM lay within 0 to 5%.

Regarding `O=C1CC(c2c(O)ccc(Cl)c2Cl)CN1CCNO` (centres unmarked) [Compound 118, 4-(2,3-Dichloro-6-hydroxyphenyl)-1-(2-(hydroxyamino)ethyl)pyrrolidin-2-one], the inhibition at 0.01 µM was 25 to 50%.

Turning to `NOCCN1CC(c2c(O)ccc(Cl)c2Cl)CC1=O` (centres unmarked) [Compound 119, 1-(2-(Aminooxy)ethyl)-4-(2,3-dichloro-6-hydroxyphenyl)pyrrolidin-2-one], the inhibition at 0.01 µM fell in the range of 0 to 5%.

On to `NOCCCN1CC(c2c(O)ccc(Cl)c2Cl)CC1=O` (centres unmarked) [Compound 120, 1-(3-(Aminooxy)propyl)-4-(2,3-dichloro-6-hydroxyphenyl)pyrrolidin-2-one], for which the inhibition at 0.01 µM was < 0%.

In the case of `OCC(F)(F)CN1C[C@H](c2c(O)ccc(Cl)c2Cl)CC1=S` [Compound 121-1, (S)-4-(2,3-Dichloro-6-hydroxyphenyl)-1-(2,2-difluoro-3-hydroxypropyl)pyrrolidine-2-thione], the IC50 lay in the range of 10 to 30 nM.

The compound `Oc1ccc(Cl)c(Cl)c1[C@@H]1CC(=S)N([C@H]2C[C@H](O)C2)C1` [Compound 124-1, (S)-4-(2,3-Dichloro-6-hydroxyphenyl)-1-((1r,3r)-3-hydroxycyclobutyl)pyrrolidine-2-thione] came in with an IC50 of 5 to 10 nM.

`Oc1ccc(Cl)c(Cl)c1[C@@H]1CC(=S)N(C[C@H]2C[C@H](O)C2)C1` [Compound 129-1, (S)-4-(2,3-Dichloro-6-hydroxyphenyl)-1-(((1r,3r)-3-hydroxycyclobutyl)methyl)pyrrolidine-2-thione]: the IC50 was ≤ 5 nM.
